Laboratory results taken from the kinase profiling compilation of Christmann-Franck et al. (2016).
One block for each compound: values may come before it.

Assays:
Experiment in all cases: radiometric filter-binding kinase assay
[1] = target: STK3 (human) (UniProt Q13188)
[2] = target: CHEK2 (human) (UniProt O96017)
[3] = target: IKBKE (human) (UniProt Q14164)
[4] = target: PIM1 (human) (UniProt P11309)
[5] = target: EPHB2 (human) (UniProt P29323)
[6] = target: MAPKAPK2 (human) (UniProt P49137)
[7] = target: NEK2 (human) (UniProt P51955)
[8] = target: MAPK14 (human) (UniProt Q16539)
Chain of MAPK14 (human) (Q16539 whole entry, looked up): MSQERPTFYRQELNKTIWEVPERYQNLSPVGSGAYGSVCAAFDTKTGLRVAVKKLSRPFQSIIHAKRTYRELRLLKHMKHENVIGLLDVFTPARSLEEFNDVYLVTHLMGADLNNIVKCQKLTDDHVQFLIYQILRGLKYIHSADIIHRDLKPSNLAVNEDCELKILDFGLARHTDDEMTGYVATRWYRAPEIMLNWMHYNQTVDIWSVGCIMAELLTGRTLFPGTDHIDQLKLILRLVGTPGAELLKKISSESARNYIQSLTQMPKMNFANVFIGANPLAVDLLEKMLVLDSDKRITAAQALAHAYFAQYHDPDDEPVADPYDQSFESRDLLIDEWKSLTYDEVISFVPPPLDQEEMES

[9] = target: TBK1 (human) (UniProt Q9UHD2)
[10] = target: MAPK9 (human) (UniProt P45984)
Chain of MAPK9 (human) (P45984 whole entry, looked up): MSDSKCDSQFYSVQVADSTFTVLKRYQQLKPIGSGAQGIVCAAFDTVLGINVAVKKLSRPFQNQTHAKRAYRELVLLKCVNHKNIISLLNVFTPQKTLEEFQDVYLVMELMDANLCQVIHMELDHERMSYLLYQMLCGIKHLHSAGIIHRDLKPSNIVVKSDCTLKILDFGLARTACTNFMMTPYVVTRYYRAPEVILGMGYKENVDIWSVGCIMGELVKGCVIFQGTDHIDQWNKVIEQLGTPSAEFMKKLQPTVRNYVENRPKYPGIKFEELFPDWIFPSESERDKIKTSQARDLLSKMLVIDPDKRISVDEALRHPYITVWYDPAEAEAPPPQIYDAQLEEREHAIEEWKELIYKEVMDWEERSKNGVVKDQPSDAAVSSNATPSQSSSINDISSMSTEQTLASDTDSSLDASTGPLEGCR

[11] = target: MAPK8 (human) (UniProt P45983)
[12] = target: DYRK3 (human) (UniProt O43781)
[13] = target: MKNK2 (human) (UniProt Q9HBH9)
[14] = target: PAK4 (human) (UniProt O96013)
[15] = target: MAPK3 (human) (UniProt P27361)
[16] = target: CaMK1 (human) (UniProt Q14012)
[17] = test system: AKT1 (human), P31749 [S473D]
Chain of AKT1 (human), P31749 [S473D] (P31749 whole entry S473D, looked up): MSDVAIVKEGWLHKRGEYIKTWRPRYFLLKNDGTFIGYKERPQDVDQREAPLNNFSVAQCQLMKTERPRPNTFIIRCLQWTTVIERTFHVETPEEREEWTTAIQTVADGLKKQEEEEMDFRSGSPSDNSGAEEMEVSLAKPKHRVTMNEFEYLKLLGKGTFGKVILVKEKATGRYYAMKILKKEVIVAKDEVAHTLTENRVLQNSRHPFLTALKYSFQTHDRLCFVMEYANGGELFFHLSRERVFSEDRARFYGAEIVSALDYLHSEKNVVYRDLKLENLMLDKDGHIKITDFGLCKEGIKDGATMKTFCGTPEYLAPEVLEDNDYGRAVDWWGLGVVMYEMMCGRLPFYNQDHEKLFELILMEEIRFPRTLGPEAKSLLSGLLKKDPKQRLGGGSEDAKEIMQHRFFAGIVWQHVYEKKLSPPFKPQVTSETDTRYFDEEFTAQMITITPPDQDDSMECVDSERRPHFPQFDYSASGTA

[18] = target: MARK2 (human) (UniProt Q7KZI7)
Chain of MARK2 (human) (Q7KZI7 whole entry, looked up): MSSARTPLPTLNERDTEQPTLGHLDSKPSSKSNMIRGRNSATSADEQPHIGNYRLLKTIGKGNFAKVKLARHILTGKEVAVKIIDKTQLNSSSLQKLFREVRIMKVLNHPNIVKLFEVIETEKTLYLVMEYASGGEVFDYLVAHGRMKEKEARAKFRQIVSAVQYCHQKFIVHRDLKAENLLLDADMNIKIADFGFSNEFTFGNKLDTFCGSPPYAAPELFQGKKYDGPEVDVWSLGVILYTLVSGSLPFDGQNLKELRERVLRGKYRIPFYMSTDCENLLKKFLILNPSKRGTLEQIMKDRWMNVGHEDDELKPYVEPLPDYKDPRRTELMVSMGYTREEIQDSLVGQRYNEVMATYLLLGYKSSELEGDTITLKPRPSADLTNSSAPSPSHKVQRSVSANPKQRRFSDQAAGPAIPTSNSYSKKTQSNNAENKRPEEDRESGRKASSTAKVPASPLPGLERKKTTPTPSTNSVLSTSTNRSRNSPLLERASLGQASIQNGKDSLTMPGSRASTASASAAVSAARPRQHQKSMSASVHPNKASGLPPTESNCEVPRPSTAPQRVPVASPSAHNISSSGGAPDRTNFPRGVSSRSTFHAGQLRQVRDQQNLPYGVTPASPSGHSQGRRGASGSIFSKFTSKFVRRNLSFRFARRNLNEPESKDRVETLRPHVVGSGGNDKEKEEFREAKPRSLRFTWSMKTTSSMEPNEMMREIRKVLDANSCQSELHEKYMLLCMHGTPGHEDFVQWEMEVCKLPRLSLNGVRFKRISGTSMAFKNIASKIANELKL

[19] = target: RPS6KA1 KD1 KD2 (human) (UniProt Q15418)
[20] = test system: RPS6KB1 (human), P23443 [T412E]
[21] = target: NUAK1 (human) (UniProt O60285)
[22] = target: DYRK1A (human) (UniProt Q13627)
[23] = target: MAP3K11 (human) (UniProt Q16584)
[24] = target: TTK (human) (UniProt P33981)
Chain of TTK (human) (P33981 whole entry, looked up): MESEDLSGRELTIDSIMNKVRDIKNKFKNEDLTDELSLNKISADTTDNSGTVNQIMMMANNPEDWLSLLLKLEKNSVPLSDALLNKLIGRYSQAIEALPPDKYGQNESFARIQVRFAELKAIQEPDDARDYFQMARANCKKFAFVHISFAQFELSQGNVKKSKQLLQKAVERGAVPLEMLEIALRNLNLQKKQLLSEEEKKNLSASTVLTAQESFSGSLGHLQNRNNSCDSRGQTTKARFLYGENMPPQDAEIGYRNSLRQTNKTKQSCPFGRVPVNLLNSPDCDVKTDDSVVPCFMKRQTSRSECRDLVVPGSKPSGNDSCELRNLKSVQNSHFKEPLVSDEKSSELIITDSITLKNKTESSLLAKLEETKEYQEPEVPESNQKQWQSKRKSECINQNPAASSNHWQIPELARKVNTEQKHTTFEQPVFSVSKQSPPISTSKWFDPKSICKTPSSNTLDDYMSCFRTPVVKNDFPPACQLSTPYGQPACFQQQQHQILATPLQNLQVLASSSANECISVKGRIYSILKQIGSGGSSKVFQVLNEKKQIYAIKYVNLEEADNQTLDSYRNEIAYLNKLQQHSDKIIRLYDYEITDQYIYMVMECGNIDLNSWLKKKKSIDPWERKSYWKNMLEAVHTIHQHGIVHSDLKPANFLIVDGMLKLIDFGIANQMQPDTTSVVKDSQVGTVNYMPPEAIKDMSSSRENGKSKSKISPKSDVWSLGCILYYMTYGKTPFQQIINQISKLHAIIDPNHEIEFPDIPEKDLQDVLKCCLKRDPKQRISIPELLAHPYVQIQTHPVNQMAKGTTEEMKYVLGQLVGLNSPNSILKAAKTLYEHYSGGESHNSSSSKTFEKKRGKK

[25] = target: NEK6 (human) (UniProt Q9HC98)
[26] = target: STK11 CAB39 STRADA (human) (UniProt Q9Y376+Q7RTN6+Q15831)
[27] = target: MARK3 (human) (UniProt P27448)
[28] = target: IKBKB (human) (UniProt O14920)
[29] = target: MARK1 (human) (UniProt Q9P0L2)
[30] = target: CSNK1D (human) (UniProt P48730)
[31] = target: JAK2 JH1 JH2 (human) (UniProt O60674)
[32] = target: IRAK4 (human) (UniProt Q9NWZ3)
Chain of IRAK4 (human) (Q9NWZ3 whole entry, looked up): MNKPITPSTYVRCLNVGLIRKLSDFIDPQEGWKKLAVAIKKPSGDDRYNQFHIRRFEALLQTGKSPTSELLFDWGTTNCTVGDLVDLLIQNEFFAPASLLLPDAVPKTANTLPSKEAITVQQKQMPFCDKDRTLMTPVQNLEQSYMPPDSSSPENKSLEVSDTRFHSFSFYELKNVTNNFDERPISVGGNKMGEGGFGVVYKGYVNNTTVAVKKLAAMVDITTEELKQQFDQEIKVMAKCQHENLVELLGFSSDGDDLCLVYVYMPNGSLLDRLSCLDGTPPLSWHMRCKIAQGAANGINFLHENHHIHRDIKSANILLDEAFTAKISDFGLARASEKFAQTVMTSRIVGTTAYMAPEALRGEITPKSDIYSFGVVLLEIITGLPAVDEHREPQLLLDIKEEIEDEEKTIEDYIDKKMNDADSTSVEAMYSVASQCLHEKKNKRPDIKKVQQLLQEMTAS

[33] = target: MKNK1 (human) (UniProt Q9BUB5)
[34] = target: NTRK1 (human) (UniProt P04629)
[35] = target: MAP2K1 (human) (UniProt Q02750)
Chain of MAP2K1 (human) (Q02750 whole entry, looked up): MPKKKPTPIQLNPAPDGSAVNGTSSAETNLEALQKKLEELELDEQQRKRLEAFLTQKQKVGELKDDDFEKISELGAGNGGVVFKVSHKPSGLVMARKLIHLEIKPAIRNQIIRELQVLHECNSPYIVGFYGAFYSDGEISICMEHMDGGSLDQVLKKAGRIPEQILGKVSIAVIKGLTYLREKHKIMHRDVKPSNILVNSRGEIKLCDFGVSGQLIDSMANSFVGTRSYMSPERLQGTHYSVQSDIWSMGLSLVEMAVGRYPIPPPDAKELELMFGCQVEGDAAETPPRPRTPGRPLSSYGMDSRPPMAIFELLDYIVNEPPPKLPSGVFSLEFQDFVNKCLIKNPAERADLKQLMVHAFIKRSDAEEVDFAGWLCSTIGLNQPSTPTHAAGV

Chain of MAPKAPK2 (human) (P49137 whole entry, looked up): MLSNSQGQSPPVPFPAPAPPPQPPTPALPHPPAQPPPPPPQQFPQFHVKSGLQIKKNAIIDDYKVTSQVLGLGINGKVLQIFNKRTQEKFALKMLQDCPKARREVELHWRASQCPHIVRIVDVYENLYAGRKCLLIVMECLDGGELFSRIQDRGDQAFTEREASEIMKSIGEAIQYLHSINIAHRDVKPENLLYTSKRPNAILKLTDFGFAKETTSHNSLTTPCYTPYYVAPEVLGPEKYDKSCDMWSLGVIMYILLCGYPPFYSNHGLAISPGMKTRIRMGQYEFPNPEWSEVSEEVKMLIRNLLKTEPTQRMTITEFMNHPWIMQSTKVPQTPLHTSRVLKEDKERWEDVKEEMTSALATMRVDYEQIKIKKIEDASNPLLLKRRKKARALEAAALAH
Chain of CHEK2 (human) (O96017 whole entry, looked up): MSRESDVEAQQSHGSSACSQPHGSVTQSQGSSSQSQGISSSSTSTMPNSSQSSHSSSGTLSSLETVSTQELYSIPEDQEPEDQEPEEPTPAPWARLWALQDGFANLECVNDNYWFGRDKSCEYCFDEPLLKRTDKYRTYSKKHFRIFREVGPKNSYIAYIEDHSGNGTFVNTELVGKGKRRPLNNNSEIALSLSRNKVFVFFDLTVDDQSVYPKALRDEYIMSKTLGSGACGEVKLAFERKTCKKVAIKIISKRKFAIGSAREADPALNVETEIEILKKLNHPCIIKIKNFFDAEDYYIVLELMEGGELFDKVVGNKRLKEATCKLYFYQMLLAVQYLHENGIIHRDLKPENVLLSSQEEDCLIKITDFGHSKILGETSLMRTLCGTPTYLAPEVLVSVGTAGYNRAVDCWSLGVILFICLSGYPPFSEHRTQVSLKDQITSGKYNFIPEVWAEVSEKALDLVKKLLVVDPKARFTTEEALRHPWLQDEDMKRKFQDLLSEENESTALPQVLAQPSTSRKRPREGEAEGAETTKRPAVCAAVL

- residual activity ([1]; compound 1.0 µM): 85%
- residual activity ([1]; compound 10.0 µM): 73%
- residual activity ([2]; compound 1.0 µM): 12%
- residual activity ([2]; compound 10.0 µM): 2%
- residual activity ([3]; compound 1.0 µM): 78%
- residual activity ([3]; compound 10.0 µM): 23%
- residual activity ([4]; compound 1.0 µM): 94%
- residual activity ([4]; compound 10.0 µM): 99%
- residual activity ([5]; compound 1.0 µM): 110%
- residual activity ([5]; compound 10.0 µM): 100%
- residual activity ([6]; compound 1.0 µM): 107%
- residual activity ([6]; compound 10.0 µM): 85%
- residual activity ([7]; compound 1.0 µM): 99%
- residual activity ([7]; compound 10.0 µM): 92%
- residual activity ([8]; compound 1.0 µM): 89%
- residual activity ([8]; compound 10.0 µM): 101%
- residual activity ([9]; compound 1.0 µM): 62%
- residual activity ([9]; compound 10.0 µM): 17%
- residual activity ([10]; compound 1.0 µM): 104%
- residual activity ([10]; compound 10.0 µM): 89%
- residual activity ([11]; compound 1.0 µM): 87%
- residual activity ([11]; compound 10.0 µM): 50%
- residual activity ([12]; compound 1.0 µM): 96%
- residual activity ([12]; compound 10.0 µM): 58%
- residual activity ([13]; compound 1.0 µM): 62%
- residual activity ([13]; compound 10.0 µM): 23%
- residual activity ([14]; compound 1.0 µM): 92%
- residual activity ([14]; compound 10.0 µM): 32%
- residual activity ([15]; compound 1.0 µM): 85%
- residual activity ([15]; compound 10.0 µM): 54%
- residual activity ([16]; compound 1.0 µM): 74%
- residual activity ([16]; compound 10.0 µM): 27%
- residual activity ([17]; compound 1.0 µM): 102%
- residual activity ([17]; compound 10.0 µM): 87%
- residual activity ([18]; compound 1.0 µM): 98%
- residual activity ([18]; compound 10.0 µM): 73%
- residual activity ([19]; compound 1.0 µM): 21%
- residual activity ([19]; compound 10.0 µM): 8%
- residual activity ([20]; compound 1.0 µM): 89%
- residual activity ([20]; compound 10.0 µM): 60%
- residual activity ([21]; compound 1.0 µM): 13%
- residual activity ([21]; compound 10.0 µM): 2%
- residual activity ([22]; compound 1.0 µM): 85%
- residual activity ([22]; compound 10.0 µM): 48%
- residual activity ([23]; compound 1.0 µM): 23%
- residual activity ([23]; compound 10.0 µM): 5%
- residual activity ([24]; compound 1.0 µM): 52%
- residual activity ([24]; compound 10.0 µM): 32%
- residual activity ([25]; compound 1.0 µM): 103%
- residual activity ([25]; compound 10.0 µM): 84%
- residual activity ([26]; compound 1.0 µM): 89%
- residual activity ([26]; compound 10.0 µM): 86%
- residual activity ([27]; compound 1.0 µM): 80%
- residual activity ([27]; compound 10.0 µM): 41%
- residual activity ([28]; compound 1.0 µM): 91%
- residual activity ([28]; compound 10.0 µM): 93%
- residual activity ([29]; compound 1.0 µM): 97%
- residual activity ([29]; compound 10.0 µM): 58%
- residual activity ([30]; compound 1.0 µM): 98%
- residual activity ([30]; compound 10.0 µM): 81%
- residual activity ([31]; compound 1.0 µM): 72%
- residual activity ([31]; compound 10.0 µM): 35%
- residual activity ([32]; compound 1.0 µM): 103%
- residual activity ([32]; compound 10.0 µM): 83%
- residual activity ([33]; compound 1.0 µM): 92%
- residual activity ([33]; compound 10.0 µM): 45%
- residual activity ([34]; compound 1.0 µM): 81%
- residual activity ([34]; compound 10.0 µM): 63%
- residual activity ([35]; compound 1.0 µM): 95%
- residual activity ([35]; compound 10.0 µM): 75%
SMILES: CCNc1nc(Nc2cc(F)c(C(=O)N3CCOCC3)cc2OC)ncc1C(F)(F)F

- residual activity ([1]; compound 0.1 µM): 78%
- residual activity ([2]; compound 0.1 µM): 48%
- residual activity ([2]; compound 1.0 µM): 12%
- residual activity ([3]; compound 0.1 µM): 28%
- residual activity ([3]; compound 1.0 µM): 18%
- residual activity ([4]; compound 0.1 µM): 96%
- residual activity ([4]; compound 1.0 µM): 62%
- residual activity ([5]; compound 0.1 µM): 23%
- residual activity ([5]; compound 1.0 µM): 6%
- residual activity ([6]; compound 1.0 µM): 108%
- residual activity ([7]; compound 0.1 µM): 22%
- residual activity ([7]; compound 1.0 µM): 3%
- residual activity ([8]; compound 0.1 µM): 98%
- residual activity ([8]; compound 1.0 µM): 85%
- residual activity ([9]; compound 0.1 µM): 14%
- residual activity ([9]; compound 1.0 µM): 8%
- residual activity ([10]; compound 1.0 µM): 33%
- residual activity ([11]; compound 0.1 µM): 89%
- residual activity ([11]; compound 1.0 µM): 38%
- residual activity ([12]; compound 1.0 µM): 10%
- residual activity ([13]; compound 0.1 µM): 67%
- residual activity ([13]; compound 1.0 µM): 17%
- residual activity ([14]; compound 0.1 µM): 29%
- residual activity ([14]; compound 1.0 µM): 9%
- residual activity ([15]; compound 0.1 µM): 111%
- residual activity ([15]; compound 1.0 µM): 82%
- residual activity ([16]; compound 0.1 µM): 67%
- residual activity ([16]; compound 1.0 µM): 26%
- residual activity ([17]; compound 0.1 µM): 99%
- residual activity ([17]; compound 1.0 µM): 89%
- residual activity ([18]; compound 0.1 µM): 67%
- residual activity ([18]; compound 1.0 µM): 28%
- residual activity ([19]; compound 1.0 µM): 7%
- residual activity ([20]; compound 0.1 µM): 70%
- residual activity ([20]; compound 1.0 µM): 28%
- residual activity ([21]; compound 0.1 µM): 16%
- residual activity ([21]; compound 1.0 µM): 13%
- residual activity ([22]; compound 0.1 µM): 57%
- residual activity ([22]; compound 1.0 µM): 12%
- residual activity ([23]; compound 0.1 µM): 15%
- residual activity ([23]; compound 1.0 µM): 8%
- residual activity ([24]; compound 0.1 µM): 81%
- residual activity ([24]; compound 1.0 µM): 64%
- residual activity ([25]; compound 0.1 µM): 89%
- residual activity ([25]; compound 1.0 µM): 59%
- residual activity ([26]; compound 0.1 µM): 119%
- residual activity ([26]; compound 1.0 µM): 73%
- residual activity ([27]; compound 0.1 µM): 41%
- residual activity ([27]; compound 1.0 µM): 16%
- residual activity ([28]; compound 0.1 µM): 86%
- residual activity ([28]; compound 1.0 µM): 55%
- residual activity ([29]; compound 0.1 µM): 63%
- residual activity ([29]; compound 1.0 µM): 31%
- residual activity ([30]; compound 0.1 µM): 95%
- residual activity ([30]; compound 1.0 µM): 69%
- residual activity ([31]; compound 0.1 µM): 4%
- residual activity ([31]; compound 1.0 µM): 3%
- residual activity ([32]; compound 0.1 µM): 64%
- residual activity ([32]; compound 1.0 µM): 20%
- residual activity ([33]; compound 0.1 µM): 59%
- residual activity ([33]; compound 1.0 µM): 17%
- residual activity ([34]; compound 0.1 µM): 32%
- residual activity ([34]; compound 1.0 µM): 11%
- residual activity ([35]; compound 0.1 µM): 40%
- residual activity ([35]; compound 1.0 µM): 13%
SMILES: COc1ccc(-n2ncc3cnc(Nc4cc(OC)c(OC)c(OCCCN5CCN(C)CC5)c4)nc32)cc1
